Source: patent US20240299542A1, “NATURAL KILLER CELLS ENGINEERED TO REDUCE OR ELIMINATE CBL-B AND USES THEREOF” (City of Hope, priority 2021, published 2024)

Assays:
Cbl-b [1] = test: Cbl-b protein by immunoblot after JAK or AKT inhibitor pretreatment and IL-15/IL-2 activation of primary NK cells; assay type: cell-based, human
Procedure: FIGS. 2A-2E depict the results of a study showing that JAK-STAT and AKT pathways mediate upregulation of Cbl-b in NK cells. (FIG. 2A) Primary human NK cells were pretreated with the JAK3 inhibitor CP-690550 and the JAK1/2 inhibitor AZD1480 at various concentrations for 90 min prior to a 24 h activation by IL15 (10 ng/ml). NK cells were then harvested for quantification of Cbl-b protein expression by immunoblot analysis. Data are representative of 6 donors performed in a similar fashion. Densitometric quantification assessing the ratio of the Cbl-b protein to β-actin protein levels for 6 donors is summarized in (FIG. 2B) and (FIG. 2C). […] Data are representative of 5 donors performed in a similar fashion. Densitometric quantification assessing the ratio of the Cbl-b protein levels to β-actin protein levels for 5 donors is summarized in (FIG. 2E). *P<0.05, **P<0.01, ***P<0.001 by One-way ANOVA or Student's two-tailed paired t-test. Data are presented as mean±SEM.
(§1) Immunoblotting. Cells were harvested and suspended in RIPA lysis buffer (Thermo Fisher Scientific) on ice for 20 minutes. Equal amount of protein was resolved by 5-15% Criterion TGX gel (Bio-Rad) and then transferred onto a Nitrocellulose (NC) or PVDF membrane (Thermo Fisher Scientific). The membrane was incubated with a primary antibody at 4° C. overnight and an IRDye secondary antibody (Li-COR Biosciences) for 1 hour at room temperature. The immunoblots were visualized with Odyssey CLx Imager (Li-COR Biosciences). Densitometric analysis was performed to quantify intensity of gel bands with Image J (National Institutes of Health).
(§2) Since IL-15 utilizes select JAK-STAT proteins to initiate cellular activation, we pretreated primary NK cells with the JAK3 inhibitor CP-690550 (22) or the JAK1/2 inhibitor AZD1480 (23) in increasing concentrations prior to IL-15 stimulation then Cbl-b expression level was evaluated. […] As K562 cells were also able to induce expression of Cbl-b in primary human NK cells (FIG. 1B), we repeated the inhibitor experiments under the K562 cell stimulation.

Cbl-b [2] = test: Cbl-b protein by immunoblot after inhibitor pretreatment and K562 co-culture of primary NK cells; assay type: cell-based, human; details: 10 uM, 90 min pretreatment, 24 h co-culture with K562 (E/T=10:1), vs vehicle control
Procedure: FIG. 7A Primary NK cells were pretreated with AZD1480 (10 uM), CP-690550 (10 uM) or Afuresertib (10 uM) for 90 min prior to a 24 h cocultured with K562 cells (E/T=10:1). The immunoblot data are representative of 3 donors in a similar fashion. Densitometric quantification assessing the ratio of Cbl-b protein levels to β-actin protein levels for 3 donors is summarized in FIG. 7B. *P<0.05, **P<0.01; ns, not significant. Data are presented as mean±SEM.
as §1, §2

Cbl-b [3] = test: Cbl-b protein by immunoblot after stimulation of primary human NK cells with cytokines or activating antibody; assay type: cell-based; details: primary human NK cells, 24 h cytokine stimulation, compared to resting NK cells without cytokines
Procedure: (FIG. 1B) Enriched primary human NK cells were co-cultured with the K562 myeloid leukemia cell line (E/T ratio=10:1) for 24 h followed by immunoblot analysis. Summary data are from three independent experiments. (FIG. 1C) Primary human NK cells were treated with different concentrations of IL-15 for 24 h followed by immunoblot analysis (n=5 donors). (FIG. 1D) Equal numbers of purified CD56^+ human NK cells, CD56^bright NK cells and CD56^dim NK cells were sorted from peripheral blood mononuclear cells isolated by Ficoll, cultured and stimulated with IL-15 (20 ng/ml for 24 h) followed by immunoblot analysis. The data are representative of three independent experiments. Med, medium only; *P<0.05, **P<0.01 by two-tailed unpaired t-test or One-way ANOVA; ns, not significant. Data are presented as mean±SEM.
FIG. 6A Enriched primary human NK cells were cocultured with Molm-13 or MV4-11 leukemia cell lines (E/T ratio=10:1) for 24 h prior to assessment of Cbl-b by immunoblot analysis. […] FIG. 6B Enriched primary human NK cells were cultured overnight with an anti-NKG2D activating antibody (clone 1D11) (10 μg/ml) or mouse IgG (10 μg/ml) as control prior to assessment of Cbl-b by immunoblot analysis. […] Data are shown summarizes four independent experiments. […] Data are shown summarizes five independent experiments. FIG. 6E The expression of Cbl-b was assessed by qRT-PCR after primary human NK cells were incubated with K562 cells (E/T ratio=10:1) for 24 h. Data are shown summarizes five independent experiments. *P<0.05, **P<0.01, compared to the shortest time point. Data are presented as mean±SEM.
as §1
We assessed the expression of Cbl-b protein in primary human NK cells enriched from the blood of healthy donors in response to 24-hour stimulation by different cytokines. […] Since certain tumor cells can trigger NK cell activation, we co-cultured NK cells for 24 h with different tumor cell lines in order to assess this effect on the expression of Cbl-b.

granzyme B = test: Granzyme B protein in supernatants by ELISA; assay type: cell-based, human
Procedure: FIGS. 3A-3E depict the results of a study showing that downregulation of Cbl-b enhances the cytotoxicity of primary human NK cells. (FIGS. 3A and 3B) Primary human NK cells transduced with Cbl-b siRNA or Scr siRNA for 24 h were stimulated without (FIG. 3A) or with (FIG. 3B) a low concentration of IL-15 (2 ng/ml) for 16 h, then co-cultured with ^51Cr labeled Molm-13, MV4-11 or EOL-1 leukemia cell lines for 4 h, followed by quantification of specific tumor cell lysis. Each experiment was repeated with 6 different normal donors. (FIG. 3C) qRT-PCR was performed to quantify the granzyme B (GZMB) mRNA levels (n=8 donors) in siRNA- and Scr siRNA-transduced primary human NK cells incubated without or with IL-15 (10 ng/ml) for 16 h. (FIG. 3D) The concentration of the granzyme B protein in the supernatants of Cbl-b siRNA- and Scr siRNA-transduced primary human NK cells incubated without (688.1 pg/ml vs 525.4 pg/ml; P=0.0232) or with IL-15 (10 ng/ml) for 24 h (8789 pg/ml vs 3397 pg/ml; P=0.0232) was measured by ELISA (n=8 donors). (FIG. 3E) The level of granzyme B protein in Cbl-b siRNA- and Scr siRNA-transduced primary human NK cells incubated without or with IL-15 (10 ng/ml) for 24 h was measured by immunoblot analysis. The data are representative of three experiments. Scr-scrambled; *P<0.05, **P<0.01, ***P<0.001, ****P<0.0001 by One-way or Two-way ANOVA; ns, not significant. Data presented as mean±SEM.
(§3) ELISA. Primary NK cells were plated in an equivalent number of 100,000 cells/well in a 96-well plate in RPMI and supplemented with 10% FBS. Cells were treated with recombinant human IL-15 (10 ng/ml) for 24 h, and cell-free culture supernatant was collected and frozen at −80° C. for later use. IFN-γ concentration was measured by ELISA using anti-IFN-γ antibody from Thermo Fisher Scientific. Granzyme B concentration was measured by ELISA kit purchased from R&D.
Both groups were next incubated without or with IL-15 and co-cultured with ^51Cr labeled MV4-11, Molm-13, or EOL-1 leukemia cell lines, followed by assessment of specific lysis measured after 4 h of co-culture.

IFN-γ [4] = test: Intracellular IFN-γ flow cytometry of siRNA-transduced NK cells; assay type: cell-based, human; details: IL-15 (10 ng/ml) 24 h, n=5 donors
Procedure: (§4) FIGS. 4A-4D depict the results of a study showing that downregulation of Cbl-b increases IFN-γ secretion in IL-15-activated primary human NK cells. (FIG. 4A) RNAseq was conducted using primary human NK cells transduced with either Cbl-b siRNA or Scr siRNA without or with incubation in IL-15 (10 ng/ml) for 16 h (4 donors for each group). […] (FIG. 4B) qRT-PCR was performed to quantify the mRNA levels of IFN-γ (n=6 donors) after IL-15 (10 ng/ml) 6 h stimulation. (FIG. 4C) The percentage of intracellular IFN-γ+ cells in un-transduced NK cells or those transduced with Cbl-b siRNA or Scr siRNA, each activated with IL-15 (10 ng/ml) for 24 h (11.5% vs 4.338%; P=0.0008; n=5 donors). (FIG. 4D) Supernatants were collected after IL-15 (10 ng/ml) for 24 h and IFN-γ concentrations measured by ELISA (18115 pg/ml vs 882.5 pg/ml; P=0.0099; n=7 donors). Scr-scrambled; *P<0.05, **P<0.01, ***P<0.001 by Student's two-tailed paired t-test or One-way ANOVA; ns, not significant. Data presented as mean±SEM.
FIGS. 9B-9D show intracellular flow cytometric analysis of CD56+ primary human NK cells transduced with Scr siRNA or transduced with Cbl-b siRNA, incubated with IL-18 (10 ng/ml), IL-12 (10 ng/ml) or IL-18 (10 ng/ml) plus IL-12 (10 ng/ml) for 24 h. Scr, scrambled; *P<0.05, ns, not significant. Data are presented as mean±SEM.
Flow cytometry. To determine protein cell surface expression via flow cytometry, cells were stained with monoclonal antibodies at room temperature for 20 minutes and washed with FACS buffer prior to analysis using a Fortessa X-20 flow cytometer (BD Biosciences). For IFN-γ intracellular flow cytometric analysis, […] GolgiPlug (BD Biosciences) was added for 4 h before cell harvest; cells were then permeabilized and fixed using a Cytofix/Cytoperm Fixation/Permeabilization Solution Kit (BD Biosciences), followed by analysis with a Fortessa X-20 flow cytometer. Intracellular flow cytometric analysis of Mertk was performed similarly except that GolgiPlug was not added. Data was analyzed by using Flowjo V10 software (Tree Star, Ashland, OR, USA).
(§5) To further explore how Cbl-b regulates the functions of primary human NK cells, we performed RNA-seq analyses using enriched primary NK cells from healthy donors transduced with Cbl-b siRNA or Scr siRNA without or with IL-15 treatment for 16 h (n=4 in each group). […] The intracellular results were supported by assessment IFN-γ secretion into the supernatant, in that IL-15-activated primary human NK cells transduced with Cbl-b siRNA expressed 10-fold higher levels of IFN-γ compared to NK cells transduced with Scr siRNA (FIG. 4D).

IFN-γ [5] = test: IFN-γ in supernatants by ELISA; assay type: cell-based, human; details: IL-15 (10 ng/ml) 24 h, n=7 donors
Procedure: as §4, §3, §5

Molecule: Cc1cc(Nc2nc(N[C@@H](C)c3ncc(F)cn3)ncc2Cl)n[nH]1 [AZD1480]
- expression of Cbl-b protein after inhibitor pretreatment (Cbl-b [1]; 90 min pretreatment at various concentrations, then IL-15 (10 ng/ml) 24 h, vs vehicle control): significant decrease
- Cbl-b expression after inhibitor pretreatment under K562 stimulation (Cbl-b [2]): only the AKT1/2/3 inhibitor Afuresertib rather than either of the two JAK inhibitors

Molecule: Cn1ncc(Cl)c1-c1cc(C(=O)N[C@H](CN)Cc2cccc(F)c2)sc1Cl [Afuresertib]
- expression of Cbl-b protein after inhibitor pretreatment (Cbl-b [1]; 10 uM, 90 min pretreatment, then IL-15 (10 ng/ml) or IL-2 (150 IU/ml) 24 h): nearly identical results
- Cbl-b expression after inhibitor pretreatment under K562 stimulation (Cbl-b [2]): significant downregulation

Molecule: IL-18: Recombinant human IL-18 purchased from Miltenyi Biotec
- expression of Cbl-b protein (ratio to β-actin) (Cbl-b [3]): no significant change

Molecule: IL-21: Recombinant human IL-21 purchased from Miltenyi Biotec
- expression of Cbl-b protein (ratio to β-actin) (Cbl-b [3]): no significant change

Molecule: Scr siRNA: scrambled Accell siRNA control, SEQ ID NO:2, UGGUUUACAUGUUGUGUGA (Accell modifications, chemistry not fully specified) [reference compound]
- concentration of granzyme B protein in supernatants (granzyme B; with IL-15 (10 ng/ml) 24 h, n=8 donors): 3397 pg/mL
- concentration of granzyme B protein in supernatants (granzyme B; without IL-15, n=8 donors): 525.4 pg/mL
- percentage of intracellular IFN-γ+ cells (IFN-γ [4]): 4.338%
- IFN-γ concentration in supernatants (IFN-γ [5]): 882.5 pg/mL

B1: IL-12: Recombinant human IL-12 purchased from Miltenyi Biotec (protein, UniProt P29459 23-219; P29460 23-328, looked up)
Interleukin-12 subunit alpha: RNLPVATPDPGMFPCLHHSQNLLRAVSNMLQKARQTLEFYPCTSEEIDHEDITKDKTSTVEACLPLELTKNESCLNSRETSFITNGSCLASRKTSFMMALCLSSIYEDLKMYQVEFKTMNAKLLMDPKRQIFLDQNMLAVIDELMQALNFNSETVPQKSSLEEPDFYKTKIKLCILLHAFRIRAVTIDRVMSYLNAS
Interleukin-12 subunit beta: IWELKKDVYVVELDWYPDAPGEMVVLTCDTPEEDGITWTLDQSSEVLGSGKTLTIQVKEFGDAGQYTCHKGGEVLSHSLLLLHKKEDGIWSTDILKDQKEPKNKTFLRCEAKNYSGRFTCWWLTTISTDLTFSVKSSRGSSDPQGVTCGAATLSAERVRGDNKEYEYSVECQEDSACPAAEESLPIEVMVDAVHKLKYENYTSSFFIRDIIKPDPPKNLQLKPLKNSRQVEVSWEYPDTWSTPHSYFSLTFCVQVQGKSKREKKDRVFTDKTSATVICRKNASISVRAQDRYYSSSWSEWASVPCS
- expression of Cbl-b protein (ratio to β-actin) (Cbl-b [3]): no significant change

B2: IL-7: Recombinant human IL-7 purchased from Miltenyi Biotec (protein, UniProt P13232 26-177, looked up)
Interleukin-7: DCDIEGKDGKQYESVLMVSIDQLLDSMKEIGSNCLNNEFNFFKRHICDANKEGMFLFRAARKLRQFLKMNSTGDFDLHLLKVSEGTTILLNCTGQVKGRKPAALGEAQPTKSLEENKSLKEQKKLNDLCFLKRLLQEIKTCWNKILMGTKEH
- expression of Cbl-b protein (ratio to β-actin) (Cbl-b [3]): no significant change
